Assay results taken from patent US10874636B2, “Application of substituted cinnamamide derivatives in preparation of anti-anxiety medication” (TASLY PHARMACEUTICAL GROUP CO., LTD., priority 2016, dated 2020).

Assays:
mice = experiment: Elevated plus-maze test for mice; format: in vivo, ICR male mice; details: 10 mg/kg intragastric for 1 week; in words
Description: 247 ICR male mice aged 6-8 weeks with the weight of 18-22 g were taken and fed adaptively for 1 week. Then, these mice were evenly divided, at random, into 19 groups based on their weights. Intragastric administration was conducted once a day according to the drugs and dosages listed in Table 1, which lasted for 7 consecutive days. 20 minutes after administration on the 7th day, the elevated plus-maze test was conducted.
The elevated plus-maze (EPM) for mice were composed of two opposite open arms (50 cm×10 cm) and two opposite enclosed arms (50 cm×10 cm×40 cm), wherein upper portions of the enclosed arms were not capped, an open portion of 10 cm×10 cm was located in the middle of the maze, and the maze was 50 cm away from the ground. The test was conducted in a quite environment at a time period ranging from 13:00 to 18:00.
The open-arms entries (OE) and enclosed-arms entries, as well as the residence time in two arms, of the mice, within 5 minutes, were recorded respectively, and the percentage of the open-arms entries (OE %) and that of the open-arms time (OT %) for each group of mice with respect to the total entries into the two arms and the total residence time in the two arms therein were calculated respectively.
Analysis was conducted using SPSS 11.5 software, and data were represented by x±S, the significance of differences between groups was compared using the analysis of variance, differences were significant while P was less than 0.05.

rats = experiment: Drinking conflict experiment for rats (Vogel test); format: in vivo, SD male rats; details: for Effect on water licks of the rats during the punished session compared with the solvent control groups: 5 mg/kg intragastric for 10 days, in words; for Water licks of rats during punished session: 5 mg/kg intragastric once a day for 10 days, test half an hour after final administration, 3 minutes, 0.3 mA, x±S
Description: 230 SD male rats with the weight of 180-220 g were taken and fed adaptively for 1 week. Then, these rats were divided, at random, into 19 groups based on their weights, 12-13 rats in each group. Intragastric administration was conducted one a day according to the drugs and dosages listed in Table 2, which lasted for 10 consecutive days. Water deprivation 48 hours before the final administration, and non-punitive drinking training was conducted on the 9th day; on the 10th day, half an hour after the final intragastric administration of all the groups, the punitive experimental test was conducted.
On the first stage (non-punitive drinking training): after water deprivation for 24 hours, the rats were placed in operation boxes individually to explore thoroughly, until they found bottle mouths and began to lick water, water licks of the rats within 3 minutes under the conditions of no electric shock (the condition was set as follows: the strength of electric shock was 0 mA) were automatically recorded by counters, and rats whose water licks were less than 300 were eliminated. On the second stage (punitive experiment): the above rats which were not eliminated were placed in the operation boxes after continuing the water deprivation for 24 hours (48 hours in total). The rats could find the bottle mouths rapidly and begin to lick water, the instruments began to time automatically and imparted one electric shock (the ratio of licks to the number of electric shocks was 20:1) while the water licks reached to 20, wherein the strength of electric shocks was 0.3 mA, lasting for 2 seconds, but these rats may control the length of the time for which they were electrically shocked by keeping away from the bottle mouths. Water licks of the rats during the punished session (3 minutes) were recorded.
Observational indexes of the Vogel drinking conflict model: water licks of the rats during the punished session.

`COc1cc(/C=C/C=C/C(=O)NCC(C)C)cc(C(F)(F)F)c1OC` [III-13, 5-(5′-trifluoromethyl-3′,4′-dimethoxyphenyl) pentadienoic acid isobutylamide] was tested, and the “Effect on open-arms entries of the mice compared with the solvent control groups” value (mice) was “increase the open-arms entries of the mice”, the “Effect on open-arms time of the mice compared with the solvent control groups” value (mice) was “prolong their open-arms time” and the “Effect on water licks of the rats during the punished session compared with the solvent control groups” value (rats) was “increase water licks of the rats during the punished session”. The “Water licks of rats during punished session” value (rats) was 375.67 ± 58.13.
For “N-methyl-(5′-trifluoromethyl-3′,4′-methylenedioxy)-amphetamine hydrochloride [II-16]”, the “Effect on open-arms entries of the mice compared with the solvent control groups” value (mice) was “increase the open-arms entries of the mice”, the “Effect on open-arms time of the mice compared with the solvent control groups” value (mice) was “prolong their open-arms time” and the “Effect on water licks of the rats during the punished session compared with the solvent control groups” value (rats) was “increase water licks of the rats during the punished session”. The “Water licks of rats during punished session” value (rats) was 406.56 ± 65.38.
